Reference: patent publication US11234997B2, “Antibacterial activity of galactooligosaccharide and xylitol in dermatological treatments” (ROTTAPHARM SPA, priority 2017, dated 2022)

Tests used:
[1] = system: S. aureus 815 (clinical strain); assay: Biofilm phase reduction (safranin staining, OD492); assay type: cell-based, Staphylococcus aureus; settings: GOS 0%; for percentage of biofilm reduction (anti-adhesive): 3 h; for percentage of biofilm reduction (anti-biofilm): 24 h
Experimental: (§1) Galactooligosaccharide and xylitol were evaluated alone and in combination at different concentrations (concentrations: 0, 1, 2.5 and 5%) to affect bacterial planktonic production and biofilm-forming ability of standardized broth cultures of S. aureus 815 (clinical strain) and S. epidermidis 317 (clinical strain) was assessed. Bacterial suspensions grown in TSB supplemented with 0.5% (v/v) glucose at logarithmic phase, were incubated on 96 flat-bottomed microliter plates in the presence of galactooligosaccharide or xylitol or their combination at different concentrations or TSB (control). After incubation for 3 h and 24 h at 37° C., each well was washed twice with sterile PBS, air-dried, stained for 1 min with 0.1% safranin, and washed with PBS. The stained biofilm were re-suspended in 200 μl ethanol (95% v/v), and OD492 was measured by spectrophotometry using an ELISA reader. Table 4 outlines the percentage of biofilm reduction (anti-adhesive (3 h) and anti-biofilm (24 h)) of S. aureus 815 and S. epidermidis 317 in the presence of galactooligosaccharide, xylitol and their combinations at different concentrations.

[2] = system: S. epidermidis 317 (clinical strain); assay: Planktonic phase growth reduction (OD600); assay type: cell-based, Staphylococcus epidermidis; settings: GOS 0%
Experimental: (§2) Galactooligosaccharide and xylitol were evaluated alone and in combination at different concentrations (concentrations: 0, 1, 2.5 and 5%) to affect bacterial planktonic production and biofilm-forming ability of standardized broth cultures of S. aureus 815 (clinical strain) and S. epidermidis 317 (clinical strain) was assessed. Different concentrations of galactooligosaccharide, xylitol and their combination, were added to a 96 well plate to evaluate their in vitro effect on S. aureus and S. epidermidis bacterial planktonic population. The overnight bacterial inocula were prepared in Tryptic soy broth (TSB), refreshed in the same medium and adjusted to OD600=0.12 (approximately 5×10^6 CFU/ml) for the experiments. For the controls, galactooligosaccharide and xylitol were also assayed alone. The plates were incubated for t=3, and 6 h at 37° C. in aerobic conditions. Each determination was performed in duplicate for three independent experiments and the biomass was evaluated using a safranin staining method. After each time of incubation, the reduction of the OD600 was evaluated in respect to the controls and the colony forming units (CFU)/ml at 0 and 24 h were detected. Table 3 outlines the percentage reduction of S. aureus 815 and S. epidermidis 317 growth in planktonic phase in the presence of galactooligosaccharide, xylitol and their combinations at different concentrations (OD600) after 3 and 6 h.

[3] = system: S. epidermidis 317 (clinical strain); assay: Biofilm phase reduction (safranin staining, OD492); assay type: cell-based, Staphylococcus epidermidis; settings: GOS 0%; for percentage of biofilm reduction (anti-adhesive): 3 h; for percentage of biofilm reduction (anti-biofilm): 24 h
Experimental: as §1

[4] = system: S. aureus 815 (clinical strain); assay: Planktonic phase growth reduction (OD600); assay type: cell-based, Staphylococcus aureus; settings: GOS 0%
Experimental: as §2

OC[C@@H](O)[C@H](O)[C@@H](O)CO [Xylitol, xylitol]
percentage of biofilm reduction (anti-adhesive) ([1]; xylitol 1%): 21.61%
percentage of biofilm reduction (anti-biofilm) ([1]; xylitol 1%): 51.68%
percentage of biofilm reduction (anti-adhesive) ([1]; xylitol 2.5%): 28.81%
percentage of biofilm reduction (anti-biofilm) ([1]; xylitol 2.5%): 47.8%
percentage of biofilm reduction (anti-adhesive) ([1]; xylitol 5%): 36.98%
percentage of biofilm reduction (anti-biofilm) ([1]; xylitol 5%): 56.02%
percentage reduction of growth in planktonic phase (OD600) ([2]; xylitol 1%, 3 h): 13.40%
percentage reduction of growth in planktonic phase (OD600) ([2]; xylitol 1%, 6 h): 22.11%
percentage reduction of growth in planktonic phase (OD600) ([2]; xylitol 2.5%, 3 h): 19.36%
percentage reduction of growth in planktonic phase (OD600) ([2]; xylitol 2.5%, 6 h): 28.57%
percentage reduction of growth in planktonic phase (OD600) ([2]; xylitol 5%, 3 h): 27.13%
percentage reduction of growth in planktonic phase (OD600) ([2]; xylitol 5%, 6 h): 29.99%
percentage of biofilm reduction (anti-adhesive) ([3]; xylitol 1%): 1.00%
percentage of biofilm reduction (anti-biofilm) ([3]; xylitol 1%): 22.81%
percentage of biofilm reduction (anti-adhesive) ([3]; xylitol 2.5%): 10.64%
percentage of biofilm reduction (anti-biofilm) ([3]; xylitol 2.5%): 22.18%
percentage of biofilm reduction (anti-adhesive) ([3]; xylitol 5%): 14.16%
percentage of biofilm reduction (anti-biofilm) ([3]; xylitol 5%): 5.67%
percentage reduction of growth in planktonic phase (OD600) ([4]; xylitol 1%, 3 h): 14.38%
percentage reduction of growth in planktonic phase (OD600) ([4]; xylitol 1%, 6 h): 15.86%
percentage reduction of growth in planktonic phase (OD600) ([4]; xylitol 2.5%, 3 h): 23.93%
percentage reduction of growth in planktonic phase (OD600) ([4]; xylitol 2.5%, 6 h): 27.80%
percentage reduction of growth in planktonic phase (OD600) ([4]; xylitol 5%, 3 h): 26.70%
percentage reduction of growth in planktonic phase (OD600) ([4]; xylitol 5%, 6 h): 35.13%
